Holding throughout (assay type): cell-based
For one assay, the system named is Min6 insulinoma cell. The assay is described as follows: Min6 cell line cytoprotection from ER stress (tunicamycin). The conditions noted are these: 6 hour exposure to tunicamycin 2.5 μg/mL, different concentrations, viability 72h. The protocol: Cells were plated in 96 well plates at a density of 0.5.10^6 cells/mL for Min6 cell line, 0,4.10^6 cells/mL for INS1 cell line the day before the treatment. ER stress was elicited by addition of 2.5 μg/mL tunicamycin (Sigma Aldrich) together with phosphatases inhibitors. Media were changed 6h later with fresh media and the cytoprotection was maintained by the addition of phosphatases inhibitors. Cell viability was assessed by measuring the reduction of WST-8 into formazan using Cell Counting Kit-8 (Sigma) according to the supplier's recommendation, 72h after tunicamycin treatment.

For assay [1], the system named is rotenone injured primary mesencephalic rat neurons. The assay can be described thus: In vitro Parkinson's disease model: rotenone injured primary mesencephalic rat neurons. The conditions noted are these: rotenone 10 nM, 24 hours; total number of TH positive neurons. The protocol: Rat dopaminergic neurons were cultured as described by Schinelli et al., (1988 J. Neurochem 50 pp1900-07) and Visanji et al., (2008 FASEB J. 22(7) pp2488-97). Briefly, the midbrains obtained from 15-day old rat embryos (Janvier Labs, France) were dissected under a microscope. The embryonic midbrains were removed and placed in ice-cold medium of Leibovitz (L15, Pan Biotech, Batch: 9310614) containing 2% of Penicillin-Streptomycin (PS, Pan Biotech, Batch: 1451013) and 1% of bovine serum albumin (BSA, Pan Biotech, Batch: h140603). The ventral portion of the mesencephalic flexure, a region of the developing brain rich in dopaminergic neurons, was used for the cell preparations.
The midbrains were dissociated by trypsinisation for 20 min at 37° C. (Trypsin 0.05% EDTA 0.02%, PanBiotech, Batch: 5890314). The reaction was stopped by the addition of Dulbecco's modified Eagle's medium (DMEM, PanBiotech, Batch: 1300714) containing DNAase I grade II (0.1 mg/ml, PanBiotech, Batch: H140508) and 10% of foetal calf serum (FCS, Gibco, Batch: 41Q7218K). Cells were then mechanically dissociated by 3 passages through a 10 ml pipette. Cells were then centrifuged at 180×g for 10 min at +4° C. on a layer of BSA (3.5%) in L15 medium. The supernatant was discarded and the cell pellets were re-suspended in a defined culture medium consisting of Neurobasal (Invitrogen, Batch: 1636133) supplemented with B27 (2%, Invitrogen, Batch: 1660670), L-glutamine (2 mM, PanBiotech, Batch: 8150713) and 2% of PS solution and 10 ng/ml of Brain-derived neurotrophic factor (BDNF, PanBiotech, Batch: H140108) and 1 ng/ml of Glial-Derived Neurotrophic Factor (GDNF, Pan Biotech, Batch: H130917). Viable cells were counted in a Neubauer cytometer using the trypan blue exclusion test. The cells were seeded at a density of 40 000 cells/well in 96 well-plates pre-coated with poly-L-lysine (Corning Biocoat, Batch: 6614022) and maintained in a humidified incubator at 37° C. in 5% CO2/95% air atmosphere. Half of the medium was changed every 2 days with fresh medium.
On day 6 of culture, the medium was removed and fresh medium was added, without or with rotenone (Sigma, Batch: 021M2227V) at 10 nM diluted in control medium, 3 wells per condition were assessed. […]
The immunolabeled cultures were automatically examined with ImageXpress (Molecular device USA). For each condition, 20 automatically fields per well (representing ˜80% of the total surface of the well) from 3 wells were analyzed. The total number of TH neurons was automatically analyzed using Custom module editor (Molecular Devices, USA). […] All values were expressed as mean +/−SEM (s.e. mean) of the 1 culture (n=3 wells per condition per culture).

Assay [2] has as its system T181P mutated DM20 protein expressed in Human 293T cell. The assay can be described thus: In vitro model of leukodystrophy (PMD): overexpression of mutated DM20, protein accumulation by western-blot. The conditions noted are these: 5 microM, western-blot 48h. The procedure:
Human open reading frame (ORF) sequences for PLP1, DM20 and Insulin were obtained from Life Technologies (Invitrogen) (IOH41689, IOH5252 and IOH7334 respectively). Construct cloning into the expression plasmid pDEST26 (Invitrogen) was performed by Gateway® LR Clonase™ II Enzyme Mix (Invitrogen). ORF mutations were carried out using the QuikChange Lightning Site-Directed Mutagenesis Kit (Stratagene) (T181P mutation for PLP1 and DM20 ORFs, Akita (C96Y) for Insulin ORF).
One day before transfection, 293T cells were plated at 300,000 cells/mL. 293T cells were transfected with PLP1 and DM20 mutant constructs using Lipofectamine 2000 according to manufacturer's procedure. After transfection, cells were treated with molecules or left untreated.
As a control, cells were transfected with native forms of the proteins. 48h later, cellular lysates were harvested. Protein accumulation was assessed by western-blot.

Results on 3 compounds are retold here after patent publication US11084783B2, “O-alkyl-benzylideneguanidine derivatives and therapeutic use for the treatment of disorders associated with an accumulation of misfolded proteins” (INFLECTIS BIOSCIENCE, priority 2014, dated 2021).

Structures are written as SMILES.

Turning to `CCONC(=N)N/N=C/c1c(F)cccc1Cl` [Compound 17, 2-(2-chloro-6-fluorobenzylidene)-N-ethoxyhydrazinecarboximidamide], the “prevention of Min6 insulinoma cell death (FIG. 7)” value with Min6 insulinoma cell is “prevent Min6 insulinoma cell death”. For the same compound, the “protection of rotenone injured primary mesencephalic rat neurons (FIG. 3)” value (shortened to “protection”) in assay [1] is “dose dependent protection”. Besides, in assay [2], the “prevention of accumulation of T181P mutated DM20 protein (FIG. 5)” value is reported as “able to prevent the accumulation”.
With `CCCONC(=N)N/N=C/c1ccccc1Cl` [Compound 12, 2-(2-chlorobenzylidene)-N-propoxyhydrazinecarboximidamide], the “prevention of Min6 insulinoma cell death (FIG. 7)” value with Min6 insulinoma cell was “prevent Min6 insulinoma cell death”. The “protection” value in assay [1] is listed as “dose dependent protection”. Besides, the “prevention of accumulation of T181P mutated DM20 protein (FIG. 5)” value in assay [2] is given as “able to prevent the accumulation”.
As to `CCONC(=N)N/N=C/c1c(Cl)cccc1Cl` [Compound 11, 2-(2,6-dichlorobenzylidene)-N-ethoxyhydrazinecarboximidamide], in assay [1], the “protection” value is “dose dependent protection”.
